Test results from ChEMBL document CHEMBL1201862, “PubChem BioAssay data set” (2004).
Calls of active or inactive are those of the source.

Legend:
Coagulation factor XII = biological target: T1, Coagulation factor XII (Homo sapiens, UniProt P00748); assay: Factor XIIa Dose Response Confirmation from Single Well HTS. [Related pubchem assays (depositor defined):AID701]; type: functional
T1 sequence (P00748 whole entry): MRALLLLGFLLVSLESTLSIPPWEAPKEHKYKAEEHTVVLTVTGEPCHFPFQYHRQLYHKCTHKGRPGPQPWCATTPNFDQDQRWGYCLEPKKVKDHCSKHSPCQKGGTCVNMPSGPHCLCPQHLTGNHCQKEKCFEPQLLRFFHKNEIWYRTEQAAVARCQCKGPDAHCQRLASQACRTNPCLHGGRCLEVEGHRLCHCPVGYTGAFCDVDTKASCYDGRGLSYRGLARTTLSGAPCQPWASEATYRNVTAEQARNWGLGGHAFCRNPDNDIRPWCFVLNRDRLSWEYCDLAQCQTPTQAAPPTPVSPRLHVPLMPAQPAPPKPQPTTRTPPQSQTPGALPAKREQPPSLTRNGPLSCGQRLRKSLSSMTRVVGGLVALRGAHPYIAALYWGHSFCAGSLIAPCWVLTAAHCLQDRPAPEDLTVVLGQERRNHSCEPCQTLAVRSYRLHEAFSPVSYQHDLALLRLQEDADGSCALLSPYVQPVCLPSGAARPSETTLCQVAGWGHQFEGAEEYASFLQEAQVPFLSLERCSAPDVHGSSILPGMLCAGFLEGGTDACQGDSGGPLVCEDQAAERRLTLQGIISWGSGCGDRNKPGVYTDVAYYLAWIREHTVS

[1] = biological target: Dual specificity protein phosphatase 3 (Homo sapiens, UniProt P51452); assay: SAR VHR1 Fluorescent Assay for In Vitro dose response studies Set 2. [Related pubchem assays (depositor defined):AID1654, AID1661, AID1878]; type: functional
Dual specificity protein phosphatase 3, sequence (P51452 whole entry): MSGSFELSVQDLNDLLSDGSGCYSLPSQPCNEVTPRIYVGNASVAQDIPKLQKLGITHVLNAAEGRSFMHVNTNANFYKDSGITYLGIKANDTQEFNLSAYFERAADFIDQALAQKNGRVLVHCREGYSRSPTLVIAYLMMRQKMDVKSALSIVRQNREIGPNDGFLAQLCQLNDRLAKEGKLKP

[2] = biological target: Alkaline phosphatase, placental type (Homo sapiens, UniProt P05187); assay: human placental alkaline phosphatase inhibition – biochemical, luminescence, confirmation (AID 1512); type: functional
Alkaline phosphatase, placental type, sequence (P05187 whole entry): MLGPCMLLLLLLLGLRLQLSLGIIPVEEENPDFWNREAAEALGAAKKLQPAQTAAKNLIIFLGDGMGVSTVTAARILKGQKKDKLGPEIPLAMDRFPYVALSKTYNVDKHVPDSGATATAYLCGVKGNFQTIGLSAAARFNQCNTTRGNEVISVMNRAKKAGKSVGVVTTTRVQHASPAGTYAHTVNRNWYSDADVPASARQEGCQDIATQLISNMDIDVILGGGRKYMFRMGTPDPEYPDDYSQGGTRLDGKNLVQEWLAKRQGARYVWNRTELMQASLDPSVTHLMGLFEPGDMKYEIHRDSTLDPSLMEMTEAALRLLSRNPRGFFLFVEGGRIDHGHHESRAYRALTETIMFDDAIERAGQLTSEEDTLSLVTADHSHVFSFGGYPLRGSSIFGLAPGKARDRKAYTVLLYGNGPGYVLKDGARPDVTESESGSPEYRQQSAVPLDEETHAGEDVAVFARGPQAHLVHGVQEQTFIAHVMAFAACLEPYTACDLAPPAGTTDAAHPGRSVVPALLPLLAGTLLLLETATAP

[3] = biological target: T2, Tyrosine-protein phosphatase non-receptor type 7 (Homo sapiens, UniProt P35236); assay: SAR analysis of chemical inhibitors of HePTP using a Fluorescent assay - Set 2. [Related pubchem assays (depositor defined):AID1059, AID1077, AID1661, AID2085, AID521]; type: functional
T2 sequence (P35236 whole entry): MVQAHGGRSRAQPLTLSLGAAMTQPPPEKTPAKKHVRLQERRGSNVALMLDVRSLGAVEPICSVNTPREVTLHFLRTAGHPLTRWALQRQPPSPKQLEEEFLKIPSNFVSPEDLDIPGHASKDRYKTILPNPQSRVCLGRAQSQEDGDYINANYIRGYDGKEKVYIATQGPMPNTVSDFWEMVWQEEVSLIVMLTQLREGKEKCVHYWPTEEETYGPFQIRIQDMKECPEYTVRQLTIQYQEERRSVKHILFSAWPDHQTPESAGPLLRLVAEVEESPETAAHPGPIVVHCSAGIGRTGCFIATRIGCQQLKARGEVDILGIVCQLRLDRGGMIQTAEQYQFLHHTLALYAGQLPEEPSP

[4] = luciferase reporter signal suppression in cells – H4 neuroglioma cells, luminescence, dose response (AID 1990); type: functional, cell-based
[5] = viability of PTEN-deleted HCT116 cells – cell-based, HCT116 PTEN knockout, dose response (AID 1047); type: functional;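 further: HCT116 colon tumor cells with PTEN knocked out; cells exposed to compound for 60 hours before readout; potency for loss of cell viability measured by luminescence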
[6] = Luminescence Cell-Based Dose Response HTS to Identify Inhibitors of 5'UTR Stem-Loop Driven Prion Protein mRNA Translation in H4 Neuroglioblastoma Cells. [Related pubchem assays: 1827 (Project Summary), 1813 (Primary HTS)]; type: functional
[7] = viability of HCT116 lacking mutant beta-catenin – cell-based, human colon tumor, dose response (AID 1045); type: functional;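 further: HCT116 colon tumor cells with beta catenin knocked out; cells exposed to compound for 60 hours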
[8] = biological target: Photoreceptor-specific nuclear receptor (Homo sapiens, UniProt Q9Y5X4); type: functional, cell-based;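 further: CHO-S cells with Gal4-NCOR and VP16-NR2E3 two-hybrid luciferase reporter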
Photoreceptor-specific nuclear receptor, sequence (Q9Y5X4 whole entry, the tested form may be a part): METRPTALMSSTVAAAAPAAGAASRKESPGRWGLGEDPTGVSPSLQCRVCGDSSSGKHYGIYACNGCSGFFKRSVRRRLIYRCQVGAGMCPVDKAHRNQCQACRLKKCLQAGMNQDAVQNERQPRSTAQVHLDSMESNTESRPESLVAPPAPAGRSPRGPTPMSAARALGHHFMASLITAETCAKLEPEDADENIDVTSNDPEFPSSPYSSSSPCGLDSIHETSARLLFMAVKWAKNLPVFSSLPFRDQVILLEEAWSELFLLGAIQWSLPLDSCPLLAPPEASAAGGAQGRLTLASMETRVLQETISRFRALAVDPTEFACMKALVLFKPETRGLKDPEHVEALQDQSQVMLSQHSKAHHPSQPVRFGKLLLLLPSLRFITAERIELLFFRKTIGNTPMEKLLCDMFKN

[9] = biological target: Glucose-6-phosphate 1-dehydrogenase (Homo sapiens, UniProt P11413); assay: inhibition of Homo sapiens G6PD, dose series – biochemical, fluorescence, selectivity assay for P. falciparum G6PD inhibitor project, dose response (AID 504792); type: functional
Glucose-6-phosphate 1-dehydrogenase, sequence (P11413 whole entry): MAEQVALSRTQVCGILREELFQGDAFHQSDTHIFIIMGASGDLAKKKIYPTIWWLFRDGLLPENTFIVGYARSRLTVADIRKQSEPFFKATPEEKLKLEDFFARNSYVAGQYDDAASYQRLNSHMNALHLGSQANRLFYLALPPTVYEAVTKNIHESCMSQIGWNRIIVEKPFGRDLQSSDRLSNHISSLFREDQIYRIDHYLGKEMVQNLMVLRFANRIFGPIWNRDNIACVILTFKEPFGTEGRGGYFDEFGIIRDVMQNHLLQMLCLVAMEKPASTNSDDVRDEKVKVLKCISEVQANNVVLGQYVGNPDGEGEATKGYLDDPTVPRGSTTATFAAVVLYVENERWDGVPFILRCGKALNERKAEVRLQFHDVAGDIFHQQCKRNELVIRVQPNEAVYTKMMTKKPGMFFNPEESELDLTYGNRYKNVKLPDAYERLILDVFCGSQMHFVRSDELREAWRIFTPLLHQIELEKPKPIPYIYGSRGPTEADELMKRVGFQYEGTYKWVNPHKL

[10] = biological target: T3, Replicative DNA helicase DnaB (Mycobacterium tuberculosis, UniProt P9WMR3); assay: DnaB intein splicing inhibitors, dose response, biochemical, cell-free fluorescence (AID 449749); type: functional
T3 sequence (P9WMR3 whole entry): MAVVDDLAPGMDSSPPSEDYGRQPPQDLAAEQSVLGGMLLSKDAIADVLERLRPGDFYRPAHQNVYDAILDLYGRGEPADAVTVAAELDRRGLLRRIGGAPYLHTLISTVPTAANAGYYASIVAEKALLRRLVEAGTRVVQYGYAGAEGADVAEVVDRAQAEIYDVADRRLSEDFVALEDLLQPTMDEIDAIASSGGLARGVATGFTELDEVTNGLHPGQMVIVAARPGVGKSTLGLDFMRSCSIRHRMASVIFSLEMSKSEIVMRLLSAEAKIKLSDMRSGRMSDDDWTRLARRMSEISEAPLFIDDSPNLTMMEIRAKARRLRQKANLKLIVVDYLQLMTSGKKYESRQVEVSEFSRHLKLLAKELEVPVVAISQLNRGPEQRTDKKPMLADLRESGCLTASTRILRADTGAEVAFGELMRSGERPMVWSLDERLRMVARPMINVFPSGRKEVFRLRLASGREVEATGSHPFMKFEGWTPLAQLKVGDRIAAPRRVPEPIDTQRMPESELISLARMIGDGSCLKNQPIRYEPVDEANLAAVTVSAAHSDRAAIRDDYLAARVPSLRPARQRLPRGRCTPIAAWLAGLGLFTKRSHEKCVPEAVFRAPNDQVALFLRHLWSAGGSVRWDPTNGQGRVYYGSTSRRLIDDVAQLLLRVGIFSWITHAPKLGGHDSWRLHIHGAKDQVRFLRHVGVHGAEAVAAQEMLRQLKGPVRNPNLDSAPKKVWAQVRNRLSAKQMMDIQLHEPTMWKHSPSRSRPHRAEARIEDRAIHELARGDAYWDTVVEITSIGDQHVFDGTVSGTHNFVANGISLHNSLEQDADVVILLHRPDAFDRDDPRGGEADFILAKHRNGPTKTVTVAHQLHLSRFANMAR

Streptococcus = assay: GAS UMAA2166 growth inhibition – luminescence, BacTiterGlo, counter-screen for streptokinase expression inhibitor project, dose response (AID 1915); type: functional, organism-based;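 further: potency for reduction of bacterial viability or growth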
[11] = microbe, parasite or virus in culture; type: functional; conditions: Mycobacterium tuberculosis
Streptokinase A = biological target: T4, Streptokinase A (Streptococcus pyogenes serotype M1, UniProt P10520); assay: viability-normalized secreted streptokinase activity reduction – plasminogen activation absorbance, OD405, dose response (AID 1914); type: functional, Streptococcus pyogenes M1 GAS;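 further: secreted streptokinase activity via plasminogen activation per viability signal from cell pellet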
T4 sequence (P10520 whole entry): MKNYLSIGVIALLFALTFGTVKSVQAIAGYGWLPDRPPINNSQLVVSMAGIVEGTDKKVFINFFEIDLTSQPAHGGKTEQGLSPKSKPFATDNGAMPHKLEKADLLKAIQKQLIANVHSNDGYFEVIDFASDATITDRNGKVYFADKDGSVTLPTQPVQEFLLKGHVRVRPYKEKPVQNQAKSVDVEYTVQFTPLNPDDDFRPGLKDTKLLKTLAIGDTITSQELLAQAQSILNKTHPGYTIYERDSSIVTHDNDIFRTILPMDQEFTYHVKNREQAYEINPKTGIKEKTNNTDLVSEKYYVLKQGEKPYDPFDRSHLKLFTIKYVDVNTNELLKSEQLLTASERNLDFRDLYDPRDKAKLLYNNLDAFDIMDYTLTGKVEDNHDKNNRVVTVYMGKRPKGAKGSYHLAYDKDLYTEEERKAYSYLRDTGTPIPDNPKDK

[12] = alpha-synuclein stem-loop luciferase translation blockers – H4 neuroglioma cells, luminescence, confirmation (AID 1988); type: functional, cell-based
[13] = Intein inhibitors as potential Tuberculosis drugs, a cytotoxicity screen. [Related pubchem assays (depositor defined):AID2221, AID2223, AID434968, AID435010, AID449749, AID449750, AID489010]; type: functional
Protein RecA = biological target: T5, Protein RecA (Mycobacterium tuberculosis, UniProt P9WHJ3); assay: Fluorescence Cell-Free Homogeneous Dose Retest to Identify Inhibitors of RecA-Intein Splicing Activity. [Related pubchem assays (depositor defined):AID2097, AID2223, AID489010, AID492950]; type: functional
T5 sequence (P9WHJ3 whole entry): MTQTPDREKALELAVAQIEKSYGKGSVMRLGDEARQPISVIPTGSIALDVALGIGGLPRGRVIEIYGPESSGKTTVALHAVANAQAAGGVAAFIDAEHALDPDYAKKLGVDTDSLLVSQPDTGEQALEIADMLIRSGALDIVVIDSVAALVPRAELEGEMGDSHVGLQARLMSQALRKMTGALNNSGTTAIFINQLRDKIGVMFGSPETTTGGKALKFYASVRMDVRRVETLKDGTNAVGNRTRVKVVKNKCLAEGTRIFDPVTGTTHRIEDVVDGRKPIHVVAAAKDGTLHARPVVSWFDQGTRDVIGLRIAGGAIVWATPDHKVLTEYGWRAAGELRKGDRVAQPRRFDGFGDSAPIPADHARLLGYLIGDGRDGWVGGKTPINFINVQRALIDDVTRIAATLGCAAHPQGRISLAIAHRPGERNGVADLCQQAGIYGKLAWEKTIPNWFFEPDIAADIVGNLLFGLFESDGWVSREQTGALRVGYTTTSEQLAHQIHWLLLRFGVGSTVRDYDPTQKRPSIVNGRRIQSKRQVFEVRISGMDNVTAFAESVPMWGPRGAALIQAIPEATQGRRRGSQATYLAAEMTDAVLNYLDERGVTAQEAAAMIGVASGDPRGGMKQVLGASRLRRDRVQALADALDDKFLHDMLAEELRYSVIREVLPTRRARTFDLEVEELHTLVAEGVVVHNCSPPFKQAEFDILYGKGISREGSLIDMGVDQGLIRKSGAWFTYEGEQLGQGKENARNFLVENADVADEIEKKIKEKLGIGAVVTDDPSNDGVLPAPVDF

[14] = Trypanosoma cruzi growth suppression in host cells – NIH3T3 host cells, beta-gal luminescence, confirmation (AID 2044); type: functional, cell-based;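 further: intracellular parasites grown in NIH/3T3 mouse fibroblasts as host cells; luminescent beta-galactosidase reporter signal from transgenic T. cruzi replicating inside host cells; inhibitors lower the luminescence signal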
[15] = system: Streptococcus sp. 'group A'; assay: Streptococcus pyogenes SK(-)GAS viability under kanamycin – luminescence, BacTiterGlo, confirmation, counter-screen for streptokinase expression inhibitor project, dose response (AID 1900); type: functional, organism-based
[16] = NIH3T3 cell viability loss – ATP luminescence, mouse fibroblasts, counter-screen, dose response (AID 2010); type: functional, cell-based;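 further: cells exposed to compound for about 90 hours before reading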

In the case of `O=C1N=C(c2ccccc2)S/C1=C\c1cccs1`, the IC50 (Coagulation factor XII) is reported as > 50 µM (inactive).
In the case of `Cc1ccc(C)c(NC(S)=NNC(=O)c2ccc(Br)o2)c1`, the IC50 [1] is reported as > 100 µM (inactive), the IC50 [2] is reported as > 100 µM (inactive) and the IC50 [3] is reported as > 100 µM (inactive).
With `COc1ccc(C(=O)c2c(C(F)(F)F)oc3c2C(=O)c2ccccc2C3=O)cc1OC` the EC50 [4] was > 120 µM (not active), the EC50 [5] was 2.34 µM (active) and the EC50 [6] was > 120 µM (not active). The EC50 [7] was 2.23 µM (active), the IC50 [8] was 1.99 µM (active) and the IC50 [9] was > 80 µM (inactive). The AC50 [10] was 4.74 µM (active), the EC50 (Streptococcus) was 8.91 µM (active) and the CC50 [11] was 6.08 µM (active). The EC50 (Streptokinase A) was > 150 µM (not active), the EC50 [12] was 8.35 µM (active) and the CC50 [13] was 5.78 µM (active). For the same compound, the EC50 (Protein RecA) was 2.02 µM (active), the EC50 [14] was 0.884 µM (active) and the EC50 [15] was 0.514 µM (active). For the same compound, the EC50 [16] was 5.27 µM (active).
